System: tumors
Assay: In vivo accumulation in tumors versus benign tissue, with tumor alkalinization models
Description: Solid tumors are hypoxic with altered metabolism, resulting in secretion of acids into the extracellular matrix and lower relative pH, a feature associated with local invasion and metastasis. Therapeutic and diagnostic agents responsive to this microenvironment may improve tumor-specific delivery. In various embodiments, the invention reflects a general strategy whereby caged small-molecule drugs or imaging agents liberate their parent compounds in regions of low interstitial pH. In this manuscript, we present a new acid-labile prodrug method based on the glycosylamine linkage, and its application to a class of positron emission tomography (PET) imaging tracers, termed [^18F] fluorodeoxyglycosyl amines ([^18F] FDG amines). [^18F]FDG amines operate via a proposed two-step mechanism, in which an acid-labile precursor decomposes to form a common radiotracer, e.g., 2-deoxy-2-[18F]fluoro-D-glucose, which is subsequently accumulated by glycan, e.g., glucose, avid cells. […]
Imaging was performed using standard micro-positron emission tomography (microPET) techniques and data analysis. […] The resulting images are analyzed using open source Amide software (FIGS. 6, 13). For quantification of uptake in tissues, regions of interest (ROI) are drawn over tissues using the CT portion of the exam. […]

OC[C@H]1OC(NCc2ccc(-c3ccccc3)cc2)[C@H]([18F])[C@@H](O)[C@@H]1O (some centres unmarked)
relative accumulation in tumors over benign tissue (in vivo): greater relative accumulation in tumors over benign tissue | effect of tumor alkalinization on tumor accumulation (sodium bicarbonate treatment, or overexpression of carbonic anhydrase): could be attenuated upon tumor alkalinization

Reference: patent publication US20180064742A1, “PET IMAGING TRACER FOR IMAGING PROSTATE CANCER” (THE REGENTS OF THE UNIVERSITY OF CALIFORNIA, priority 2015, published 2018)
